According to patent publication US6288091A, “Antiherpes virus compounds and methods for their preparation and use” (Boehringer Ingelheim Ltd., priority 1999, dated 2001):
Read-outs that look alike come from different tables or passages of the source.

Legend:
HCMV (strain AD169) = experiment: Inhibition of HCMV replication, plaque reduction assay (PRA, Hs-68 cells); format: cell-based, Human Cytomegalovirus (HCMV); conditions: read-out: PRA CMV EC50
Description: C) Inhibition of Human Cytomegalovirus (HCMV) Replication
The effect of compounds on the replication of HCMV has been measured by using an ELISA-based assay (ELISA) and a plaque reduction assay (PRA).
Hs-68 cells (ATCC # CRL 1635) were seeded in 12-well plates at 83,000 cells/well in 1 mL of DMEM medium (Gibco Canada Inc.) supplemented with 10% fetal bovine serum (FBS, Gibco Canada Inc.). The plates were incubated for 3 days at 37° to allow the cells to reach 80-90% confluency prior to the assay.
The medium was removed from the cells by aspiration. The cells were then infected with approximately 50 PFU of HCMV (strain AD169, ATCC VR-538) in DMEM medium supplemented with 5% inactivated FBS (assay medium). The virus was allowed to adsorb to cells for 2 h at 37°. Following viral adsorption, the medium was removed from the wells by aspiration. The cells were then incubated with or without 1 mL of appropriate concentrations of test reagent in assay medium. After 4 days of incubation at 37°, the medium was exchanged with fresh medium containing test compound and 4 days later the cells were fixed with 1% aqueous formaldehyde and stained with a 2% crystal violet solution in 20% ethanol in water. Microscopic plaques were counted using a stereomicroscope. Drug effects were calculated as a percent reduction in the number of plaques in the presence of each drug concentration compared to the number observed in the absence of drug. Ganciclovir was used as a positive control in all experiments.
The EC50 values obtained according to this assay for certain thiazolyl derivatives of this invention are listed in the following tables under the heading PRA CMV.

HSV-1 strain F or KOS = experiment: Inhibition of herpes simplex virus (HSV-1) replication in cell culture (BHK-21 cells, glycoprotein C ELISA); format: cell-based; conditions: Human alphaherpesvirus 1, BHK-21, Group 1 Table 1 entries
Description: B) Inhibition of Herpes Simplex Virus (HSV-1) Replication in Cell Culture
BHK-21 cells clone 13 (ATCC CCL10) were incubated for two days in 850 cm^2 roller bottles (2×10^7 cells/bottle) with A-MEM medium (Gibco Canada Inc., Burlington, Ontario, Canada) supplemented with 8% (v/v) fetal bovine serum (FBS, Gibco Canada, Inc.). The cells were trypsinized and then 3,000 cells in 100 μL of fresh medium were transferred into each well of a 96-well microtiter plate. The cells were incubated at […] for a period of 3 days to reach a density of 50,000 cells per well. The cells were washed twice with 100 μL of α-MEM supplemented with 2% heat inactivated FBS and incubated for 1-2 hours in 100 μL of the same medium.
Thereafter, the cells were infected with HSV-1 strain F or KOS (multiplicity of infection =0.05 PFU/cell) in 50 μL of α-MEM supplemented with 2% heat inactivated FBS. Following one hour of virus absorption at 37°, the medium was removed and the cells were washed with α-MEM supplemented with 2% heat inactivated FBS (2×100 μL). The cells were incubated with or without 100 μL of the appropriate concentration of test reagent in α-MEM medium supplemented with 2% heat inactivated FBS. After 24 hours of incubation at 37°, the extent of viral replication was determined by an ELISA assay; for instance, the following assay that detects the late glycoprotein C of HSV-1.
Cells were fixed in the microtiter plate with 100 μL of 0.063% glutaraldehyde in phosphate buffered saline for 30 min at room temperature. The microtiter plate was then washed once with casein blocking solution and blocked with 200 μL of the same solution for one hour at room temperature. Thereafter, 100 μL of mAb C11 recognizing the glycoprotein C of HSV-1 (see E. Trybala et al., Journal of General Virology, 1994, 75, 743) was added to each well for two hours at room temperature. The plate was washed three times with phosphate buffered saline containing 0.05% polyoxyethylene (20) sorbitan monooleate. The cells were incubated with 100 μL of sheep anti-mouse IgG horseradish peroxidase for one hour at room temperature in the dark.
The plate was washed three times with 200 μL of the above-noted phosphate buffer saline preparation, and then once with 0.1 M sodium citrate (pH 4.5). Thereafter, 100 μL of orthophenylenediamine dihydrochloride (OPD, Gibco, Canada Inc.) was added to each well. The plate was agitated on a microplate shaker for 30 min in the dark. Color development was monitored at 450 nm using a microplate spectrophotometer.
SAS was used to calculate % inhibition of viral replication and to generate EC50 values.

HSV-1 helicase-primase = target: T1, HSV-1 helicase-primase (Human herpesvirus 1, UniProt P10189+P10236); experiment: HSV-1 DNA-dependent ATPase assay (inhibition of HSV-1 helicase-primase); format: biochemical; conditions: Group 1 Table 1 entries
T1 construct: made in house; host or cells: Sf21 insect cells triply infected with recombinant baculoviruses (UL5, UL8, UL52)
T1 sequence (P10192 whole entry): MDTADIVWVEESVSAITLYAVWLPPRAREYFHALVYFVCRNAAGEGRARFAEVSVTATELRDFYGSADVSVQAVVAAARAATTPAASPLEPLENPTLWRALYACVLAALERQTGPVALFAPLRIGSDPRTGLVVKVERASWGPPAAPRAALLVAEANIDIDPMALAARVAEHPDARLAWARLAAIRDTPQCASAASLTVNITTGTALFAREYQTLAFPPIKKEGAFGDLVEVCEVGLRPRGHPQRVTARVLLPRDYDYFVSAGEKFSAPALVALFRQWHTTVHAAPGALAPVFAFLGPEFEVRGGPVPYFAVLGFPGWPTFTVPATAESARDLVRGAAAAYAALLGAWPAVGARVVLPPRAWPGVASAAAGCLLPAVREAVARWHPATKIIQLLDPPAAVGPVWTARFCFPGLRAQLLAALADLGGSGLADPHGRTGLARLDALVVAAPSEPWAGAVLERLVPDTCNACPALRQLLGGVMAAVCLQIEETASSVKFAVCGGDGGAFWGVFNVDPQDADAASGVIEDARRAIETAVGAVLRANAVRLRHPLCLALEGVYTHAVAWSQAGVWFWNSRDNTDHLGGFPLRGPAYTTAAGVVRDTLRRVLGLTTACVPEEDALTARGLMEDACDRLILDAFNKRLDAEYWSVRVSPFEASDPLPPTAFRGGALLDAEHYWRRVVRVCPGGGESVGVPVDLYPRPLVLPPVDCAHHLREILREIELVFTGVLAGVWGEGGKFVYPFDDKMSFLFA
T1 sequence (P10236 whole entry): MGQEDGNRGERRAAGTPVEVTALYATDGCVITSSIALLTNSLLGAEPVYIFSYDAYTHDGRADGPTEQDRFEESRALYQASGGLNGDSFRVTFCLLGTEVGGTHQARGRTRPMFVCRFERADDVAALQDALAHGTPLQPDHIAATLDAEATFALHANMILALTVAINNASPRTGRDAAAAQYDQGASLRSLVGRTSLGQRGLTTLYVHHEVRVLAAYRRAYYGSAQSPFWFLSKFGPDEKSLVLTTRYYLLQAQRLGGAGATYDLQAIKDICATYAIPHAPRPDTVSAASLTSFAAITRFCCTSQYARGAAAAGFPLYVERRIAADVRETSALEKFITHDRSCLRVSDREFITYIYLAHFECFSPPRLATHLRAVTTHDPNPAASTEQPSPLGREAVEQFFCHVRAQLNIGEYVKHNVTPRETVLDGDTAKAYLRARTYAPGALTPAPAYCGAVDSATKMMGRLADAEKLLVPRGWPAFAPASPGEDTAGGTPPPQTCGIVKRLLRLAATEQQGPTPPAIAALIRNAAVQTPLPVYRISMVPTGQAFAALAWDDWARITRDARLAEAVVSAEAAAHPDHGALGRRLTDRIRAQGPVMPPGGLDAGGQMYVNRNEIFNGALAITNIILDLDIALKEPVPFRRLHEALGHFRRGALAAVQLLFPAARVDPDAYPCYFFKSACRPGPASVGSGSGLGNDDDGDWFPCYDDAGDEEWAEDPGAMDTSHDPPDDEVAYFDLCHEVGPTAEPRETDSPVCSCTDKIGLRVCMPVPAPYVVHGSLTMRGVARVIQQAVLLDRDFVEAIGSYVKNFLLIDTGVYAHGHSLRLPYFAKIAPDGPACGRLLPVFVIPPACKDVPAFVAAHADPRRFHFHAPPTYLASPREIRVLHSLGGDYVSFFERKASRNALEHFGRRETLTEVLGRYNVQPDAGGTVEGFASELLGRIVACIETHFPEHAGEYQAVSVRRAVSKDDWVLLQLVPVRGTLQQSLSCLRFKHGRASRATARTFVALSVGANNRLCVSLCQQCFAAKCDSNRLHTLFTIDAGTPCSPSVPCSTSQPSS
T1 sequence (P10189 whole entry): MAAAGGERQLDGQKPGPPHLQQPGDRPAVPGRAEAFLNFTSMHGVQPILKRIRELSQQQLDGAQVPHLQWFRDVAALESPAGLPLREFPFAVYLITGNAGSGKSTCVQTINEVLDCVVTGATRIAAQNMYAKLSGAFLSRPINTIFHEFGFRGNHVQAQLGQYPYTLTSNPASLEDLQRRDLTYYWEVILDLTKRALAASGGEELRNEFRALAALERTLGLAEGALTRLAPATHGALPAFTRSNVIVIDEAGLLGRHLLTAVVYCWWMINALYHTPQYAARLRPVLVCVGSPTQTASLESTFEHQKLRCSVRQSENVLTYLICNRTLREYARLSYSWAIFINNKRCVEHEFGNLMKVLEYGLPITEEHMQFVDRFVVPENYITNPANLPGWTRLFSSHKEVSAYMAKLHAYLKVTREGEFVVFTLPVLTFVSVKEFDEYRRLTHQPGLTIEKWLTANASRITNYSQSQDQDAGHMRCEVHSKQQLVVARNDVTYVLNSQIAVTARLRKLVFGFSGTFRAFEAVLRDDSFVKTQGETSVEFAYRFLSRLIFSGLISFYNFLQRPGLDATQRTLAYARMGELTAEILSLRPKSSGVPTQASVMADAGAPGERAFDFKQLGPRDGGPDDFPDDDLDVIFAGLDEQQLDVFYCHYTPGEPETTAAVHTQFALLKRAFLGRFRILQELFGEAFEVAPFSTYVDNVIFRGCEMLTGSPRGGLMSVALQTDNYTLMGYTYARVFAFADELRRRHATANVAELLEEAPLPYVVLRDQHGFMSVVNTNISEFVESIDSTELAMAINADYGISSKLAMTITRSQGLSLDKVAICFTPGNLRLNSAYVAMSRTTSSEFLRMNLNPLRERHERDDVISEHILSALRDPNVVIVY
Excerpt: A) HSV-1 DNA-Dependent ATP Assay (an in Vitro Assay Based on the Inhibition of HSV-1 Helicase-primase).
HSV-1 helicase-primase holoenzyme was produced in triply infected Sf21 cells using recombinant baculoviruses expressing the UL5, UL8 and UL52 helicase-primase subunits, as described by S. Dracheva et al., J. Biol. Chem. 1995, 270, 14148. The crude enzyme was purified by ammonium sulfate precipitation, Source 15Q® chromatography and Sephacryl® S-300 HR gel filtration (both purification systems can be obtained from Pharmacia Biotech Inc., Montreal, Quebec, Canada), see S. Dracheva et al., supra.
The DNA-dependent ATPase assay, described by J. J. Crute et al., Nucleic Acids Res. 1988, 16, 6585, was modified and used to evaluate the capability of the compounds of Group 1-formula 1 to inhibit HSV-1 helicase-primase activity. The reaction mixtures (80 μL each) contained 40 mM 4-(2-hydroxyethyl)-1-piperazineethanesulfonic acid (HEPES, pH 7.5), 10% (v/v) glycerol, 5.5 mM MgCl2, 1 mM DL-dithiothreitol (DTT), 50 μg/mL acetylated bovine serum albumin, 3.3% (v/v) DMSO, 4 mM ATP, 25 μM single-stranded M13 DNA hybridized to double-tailed 68-mer oligonucleotide and 3 μg/mL HSV-1 helicase-primase. After incubation for 20 min at 34°, formation of inorganic phosphate from hydrolysis of ATP was monitored spectrophotometrically at 650 nm using acidic ammonium molybdate/malachite green reagent, P. A. Lanzetta et al., Anal. Biochem. 1979, 100, 95. DNA-dependent ATPase activity was calculated from the net absorbance change in the presence and absence of inhibition.

[1] = Human betaherpesvirus 5, AD169, Hs68, Group 1 Table 4 entries
[2] = Human betaherpesvirus 5, AD169, Hs68, Group 2 Table 1 entries
[3] = Human betaherpesvirus 5, AD169, Hs68, Group 1 Table 3 entries
[4] = Human betaherpesvirus 5, AD169, Hs68, Group 1 Table 2 entries
[5] = Human betaherpesvirus 5, AD169, Hs68, Group 1 Table 1 entries

CC(C)(C)OC(=O)Nc1nc(-c2ccc(NC(=O)CCN(Cc3ccccc3)Cc3ccccc3)cc2)cs1 [Example 1]
EC50 (HCMV (strain AD169); [1]): 1.6 µM

CC(C)(C)NC(=O)Nc1nc(-c2ccc(NC(=O)CCN(Cc3ccccc3)Cc3ccccc3)cc2)cs1 [Example 2]
EC50 (HCMV (strain AD169); [1]): 1.5 µM

Nc1nc(-c2ccc(NC(=O)Nc3nccs3)cc2)cs1 [Example 18]
EC50 (HCMV (strain AD169); [2]): > 56 µM

Nc1nc(-c2ccc(NC(=O)NCCc3c[nH]c4ccccc34)cc2)cs1 [Example 19]
EC50 (HCMV (strain AD169); [2]): 12 µM

Cc1cc(C)nc(SCC(=O)N(CC(=O)Nc2ccc(-c3csc(NC(=O)OC(C)(C)C)n3)cc2)Cc2ccccc2)n1 [Example 21]
EC50 (HCMV (strain AD169); [3]): 1.2 µM

C[C@H](c1ccccc1)N(CC(=O)Nc1ccc(-c2csc(NC(=O)OC(C)(C)C)n2)cc1)C(=O)C1CCCCC1 [Example 22]
EC50 (HCMV (strain AD169); [3]): 1.3 µM

C[C@H](c1ccccc1)N(CC(=O)Nc1ccc(-c2csc(NC(=O)OC(C)(C)C)n2)cc1)C(=O)Cc1ccccn1 [Example 23]
EC50 (HCMV (strain AD169); [3]): 2.8 µM

C[C@H](c1ccccc1)N(CC(=O)Nc1ccc(-c2csc(NC(=O)OC(C)(C)C)n2)cc1)C(=O)c1ccncc1 [Example 24]
EC50 (HCMV (strain AD169); [3]): 3.7 µM

C[C@@H](c1ccccc1)N(CC(=O)Nc1ccc(-c2csc(NC(=O)OC(C)(C)C)n2)cc1)C(=O)Cc1ccccn1 [Example 25]
EC50 (HCMV (strain AD169); [3]): 2.7 µM

CC(=O)Nc1nc(-c2ccc(NC(=O)CN(C(=O)C3CCCCC3)[C@H](C)c3ccccc3)cc2)cs1 [Example 26]
EC50 (HCMV (strain AD169); [3]): 15 µM

Nc1nc(-c2ccc(NC(=O)CCN(Cc3ccccc3)Cc3ccccn3)cc2)cs1 [Example 26]
EC50 (HCMV (strain AD169); [4]): 14 µM

Nc1nc(-c2ccc(NC(=O)CCN(CCN3CCCC3)Cc3ccccc3)cc2)cs1 [Example 27]
EC50 (HCMV (strain AD169); [4]): 15 µM

CN(CCc1ccncc1)C(=O)Nc1ccc(-c2csc(NC(=O)OC(C)(C)C)n2)cc1 [Example 29]
EC50 (HCMV (strain AD169); [2]): 3.9 µM

Nc1nc(-c2ccc(NC(=O)CCN(Cc3ccccc3)Cc3cccnc3)cc2)cs1 [Example 29]
EC50 (HCMV (strain AD169); [4]): 14 µM

CCCCN(C)C(=O)Nc1ccc(-c2csc(NC(=O)OC(C)(C)C)n2)cc1 [Example 30]
EC50 (HCMV (strain AD169); [2]): 2.2 µM

Nc1nc(-c2ccc(NC(=O)CCN(Cc3ccccc3)Cc3ccccc3O)cc2)cs1 [Example 30]
EC50 (HCMV (strain AD169); [4]): 13 µM

CCCCN(CC)C(=O)Nc1ccc(-c2csc(NC(=O)OC(C)(C)C)n2)cc1 [Example 31]
EC50 (HCMV (strain AD169); [2]): 2 µM

CCCCN(CCO)C(=O)Nc1ccc(-c2csc(NC(=O)OC(C)(C)C)n2)cc1 [Example 32]
EC50 (HCMV (strain AD169); [2]): 2 µM

CCCCN(CC#N)C(=O)Nc1ccc(-c2csc(NC(=O)OC(C)(C)C)n2)cc1 [Example 33]
EC50 (HCMV (strain AD169); [2]): 2.4 µM

CCCCNc1nc(-c2ccc(NC(=O)N(CCCC)CCCC)cc2)cs1 [Example 34]
EC50 (HCMV (strain AD169); [2]): 10 µM

CCCCN(CCCC)C(=O)Nc1ccc(-c2csc(Nc3ccccn3)n2)cc1 [Example 35]
EC50 (HCMV (strain AD169); [2]): 2.2 µM

CCCCN(CCCC)C(=O)Nc1ccc(-c2csc(Nc3cccnc3)n2)cc1 [Example 36]
EC50 (HCMV (strain AD169); [2]): 3 µM

Nc1nc(-c2ccc(NC(=O)CN(Cc3ccccc3)C(=O)c3ccsc3)cc2)cs1 [Example 115]
EC50 (HCMV (strain AD169); [5]): 49 µM

Nc1nc(-c2ccc(NC(=O)CN(Cc3ccccc3)C(=O)Cc3cccs3)cc2)cs1 [Example 116]
EC50 (HCMV (strain AD169); [5]): 19 µM

Nc1nc(-c2ccc(NC(=O)CN(Cc3ccccc3)C(=O)Cc3ccsc3)cc2)cs1 [Example 117]
EC50 (HCMV (strain AD169); [5]): 35 µM

Nc1nc(-c2ccc(NC(=O)CN(Cc3ccc(F)cc3)C(=O)Cc3ccccn3)cc2)cs1 [Example 124]
EC50 (HCMV (strain AD169); [5]): 28 µM

Nc1nc(-c2ccc(NC(=O)CN(Cc3cccc(F)c3)C(=O)Cc3ccccn3)cc2)cs1 [Example 126]
EC50 (HCMV (strain AD169); [5]): 35 µM

Cc1ccccc1CN(CC(=O)Nc1ccc(-c2csc(N)n2)cc1)C(=O)c1cccs1 [Example 128]
EC50 (HCMV (strain AD169); [5]): 28 µM

Cc1ccccc1CN(CC(=O)Nc1ccc(-c2csc(N)n2)cc1)C(=O)COc1c(C)cccc1C [Example 129]
EC50 (HCMV (strain AD169); [5]): 12 µM

Cc1cc(C)nc(SCC(=O)N(CC(=O)Nc2ccc(-c3csc(N)n3)cc2)Cc2ccccc2C)n1 [Example 130]
EC50 (HCMV (strain AD169); [5]): 8.8 µM

Nc1nc(-c2ccc(NC(=O)CN(CCc3cscn3)C(=O)c3ccncc3)cc2)cs1 [Example 164]
EC50 (HSV-1 strain F or KOS): 0.061 µM | IC50 (HSV-1 helicase-primase): 3 µM

Cc1nc(CCN(CC(=O)Nc2ccc(-c3csc(N)n3)cc2)C(=O)c2ccncc2)cs1 [Example 165]
EC50 (HSV-1 strain F or KOS): 1.1 µM | IC50 (HSV-1 helicase-primase): 4.6 µM

Cc1ccn(C)c1C(=O)N(CC(=O)Nc1ccc(-c2csc(N)n2)cc1)Cc1ccccc1 [Example 166]
EC50 (HSV-1 strain F or KOS): 0.03 µM | IC50 (HSV-1 helicase-primase): 0.43 µM

Cc1cnccc1C(=O)N(CC(=O)Nc1ccc(-c2csc(N)n2)cc1)Cc1ccccc1 [Example 167]
EC50 (HSV-1 strain F or KOS): 0.031 µM | IC50 (HSV-1 helicase-primase): 0.14 µM

Cc1cc(C(=O)N(CC(=O)Nc2ccc(-c3csc(N)n3)cc2)Cc2ccccc2)cc(C)n1 [Example 168]
EC50 (HSV-1 strain F or KOS): 0.45 µM | IC50 (HSV-1 helicase-primase): 2.9 µM

Nc1nc(-c2ccc(NC(=O)CN(Cc3ccccc3)C(=O)c3ccncn3)cc2)cs1 [Example 169]
EC50 (HSV-1 strain F or KOS): 0.15 µM | IC50 (HSV-1 helicase-primase): 1.4 µM

Nc1nc(-c2ccc(NC(=O)CN(Cc3ccccc3)C(=O)c3cscn3)cc2)cs1 [Example 170]
EC50 (HSV-1 strain F or KOS): 1.5 µM | IC50 (HSV-1 helicase-primase): 0.7 µM

Nc1nc(C(=O)N(CC(=O)Nc2ccc(-c3csc(N)n3)cc2)Cc2ccccc2)cs1 [Example 171]
EC50 (HSV-1 strain F or KOS): 0.092 µM | IC50 (HSV-1 helicase-primase): 0.46 µM

Cc1nc(C(=O)N(CC(=O)Nc2ccc(-c3csc(N)n3)cc2)Cc2ccccc2)cs1 [Example 172]
EC50 (HSV-1 strain F or KOS): 0.36 µM | IC50 (HSV-1 helicase-primase): 1.6 µM

Cc1nc(C)c(C(=O)N(CC(=O)Nc2ccc(-c3csc(N)n3)cc2)Cc2ccccc2)s1 [Example 173]
EC50 (HSV-1 strain F or KOS): 0.05 µM | IC50 (HSV-1 helicase-primase): 0.95 µM

Nc1nc(-c2ccc(NC(=O)CN(CCc3ccncc3)C(=O)c3ccncc3)cc2)cs1 [Example 174]
EC50 (HSV-1 strain F or KOS): 6.6 µM | IC50 (HSV-1 helicase-primase): 9.2 µM
